Laboratory results from publication PMC7439263 (ACS Omega, 2020).

Assays:
[1] = biological target: T1, α-amylase (from the porcine pancreas) (Sus scrofa, UniProt P00690); assay: biochemical; type: biochemical; settings: for IC50: IC50 α-amylase, mean ± SD (n = 3)
T1 sequence (P00690 16-511): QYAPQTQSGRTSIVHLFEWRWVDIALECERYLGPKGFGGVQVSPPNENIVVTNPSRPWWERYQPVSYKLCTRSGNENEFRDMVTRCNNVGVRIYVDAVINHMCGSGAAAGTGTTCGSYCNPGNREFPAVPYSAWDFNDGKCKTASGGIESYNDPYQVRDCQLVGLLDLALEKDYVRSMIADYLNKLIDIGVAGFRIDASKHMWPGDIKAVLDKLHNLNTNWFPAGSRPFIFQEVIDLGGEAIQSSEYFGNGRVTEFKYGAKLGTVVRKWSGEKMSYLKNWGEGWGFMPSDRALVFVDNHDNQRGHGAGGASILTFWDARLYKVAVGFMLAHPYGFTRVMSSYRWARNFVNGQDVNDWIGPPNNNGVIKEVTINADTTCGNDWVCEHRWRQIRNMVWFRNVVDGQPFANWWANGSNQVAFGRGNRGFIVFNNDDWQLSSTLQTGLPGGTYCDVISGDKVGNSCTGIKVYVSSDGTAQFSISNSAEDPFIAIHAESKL

[2] = tested on: α-Glucosidase (from Saccharomyces cerevisiae); assay: Assay for α-glucosidase inhibitory activity; type: biochemical; settings: for α-glucosidase inhibitory activity compared to acarbose (in words): Figure 3, 150 μM, p < 0.05; for IC50: read-out: IC50 α-glucosidase, mean ± SD (n = 3); for total activity α-glucosidase: total activity = amount (mg/kg)/IC50 (mg/mL)
glycogen phosphorylase = settings: cited from earlier work
[3] = in vivo ref 49; cited from earlier work
α-amylase = settings: cited from earlier work
α-glucosidase = settings: cited from earlier work
[4] = STZ-induced diabetic rats ref 46; cited from earlier work
glycogenic enzymes = settings: rats ref 47; cited from earlier work
[5] = tested on: α-Glucosidase (from Saccharomyces cerevisiae); assay: Inhibitory kinetics analysis against the α-glucosidase enzyme; type: biochemical; settings: Lineweaver–Burk plot analysis, sucrose substrate

CC1(C)CC[C@]2(C(=O)O)CC[C@]3(C)C(=CC[C@@H]4[C@@]5(C)C[C@@H](O)[C@H](O)C(C)(C)[C@@H]5CC[C@]43C)[C@@H]2C1 [maslinic acid 2, maslinic acid]
α-amylase inhibitory activity compared to acarbose (in words) [1]: acarbose had higher activity than them
IC50 [1]: 67 ± 5.4 µM
total activity α-amylase ([1]; total activity = amount (mg/kg)/IC50 (mg/mL)): 5678.2
α-glucosidase inhibitory activity compared to acarbose (in words) [2]: higher than that of acarbose
IC50 [2]: 34.5 ± 1.4 µM
total activity α-glucosidase [2]: 11042.9
blood glucose levels / glycogen phosphorylase inhibition (glycogen phosphorylase): reduce blood glucose levels by inhibiting glycogen phosphorylase

OCCc1ccc(O)c(O)c1 [hydroxytyrosol 7, hydroxytyrosol]
IC50 [1]: > 500 µM
inhibition at 500 µM ([1]; read-out: α-amylase inhibitory activity at highest tested concentration): < 10%
α-glucosidase inhibitory activity at highest tested concentration ([2]; 1000 μM): less than 10%
IC50 [2]: > 1000 µM

C[C@H]1[C@H](C)CC[C@]2(C(=O)O)CC[C@]3(C)C(=CC[C@@H]4[C@@]5(C)C[C@@H](O)[C@H](O)C(C)(C)[C@@H]5CC[C@]43C)[C@H]12 [corosoric acid]
post-challenge plasma glucose levels [3]: significant effect on lowering post-challenge plasma glucose levels
α-amylase inhibitory activity in vitro (in words) (α-amylase): strong inhibitory activity
α-glucosidase inhibitory activity in vitro (in words) (α-glucosidase): strong inhibitory activity

CC1(C)CC[C@]2(C(=O)O)CC[C@]3(C)C(=CC[C@@H]4[C@@]5(C)CC[C@H](O)C(C)(C)[C@@H]5CC[C@]43C)[C@@H]2C1 [oleanolic acid 1, oleanolic acid]
α-glucosidase inhibitory activity compared to acarbose (in words) [2]: higher than that of acarbose
total activity α-glucosidase [2]: 5359.5
blood glucose levels [4]: lower blood glucose levels
glycogen levels and glycogenic enzymes (glycogenic enzymes): reduced glycogen levels and glycogenic enzymes
inhibition type against α-glucosidase [5]: partial mixed inhibitor
inhibition type against α-glucosidase ([5]; listed as 1): mixed-type
